# In patent US5530126A, “Process for the preparation of substituted 6-(pyrazol-3yl)-1,4-benzoxazin-3-ones” (Monsanto Company, priority 1994, dated 1996):
# Key:
# Type in all cases: in vivo
# Cocklebur [1] = assay: Pre-emergence herbicide test; conditions: Xanthium strumarium, read-out: % plant inhibition (Cobu); for inhibition at 11210 g/ha: 11.21 kg/ha; for inhibition at 1120 g/ha: 1.12 kg/ha
# Procedure: (§1) The tests for pre-emergence herbicide activity are conducted as follows:
# (§2) Topsoil is placed in an aluminum pan and compacted to a depth of 0.95 to 1.27 cm from the top of the pan. On the top of the soil is placed a predetermined number of seeds of each of several monocotyledonous and dicotyledonous annual plant species and/or vegetative propagules of various perennial plant species. A known amount of the active ingredient dissolved or suspended in an organic solvent, e.g., acetone, or water as carrier is then applied directly to the seed bed, which is then covered with a layer of untreated topsoil to level fill the pan. After treatment, the pans are moved to a greenhouse bench where they are watered from below as needed to give adequate moisture for germination and growth.
# (§3) Approximately 10-14 days (usually 11 days) after seeding and treating, the pans are observed and the results (% inhibition) are recorded.
# (§4) Tables 7 and 7A below summarize the results of the pre-emergence herbicidal activity tests of compounds of this invention in weeds. The herbicidal rating shown in these tables is the percent inhibition of each plant species. The plant species usually regarded as weeds which are utilized in one set of tests, the data for which are shown in the tables, are identified by letter headings above the columns in accordance with the following legend: […]
# Barnyardgrass [2] = assay: Pre-emergence herbicide test; conditions: Echinochloa crus-galli, read-out: % plant inhibition (Bygr); for inhibition at 11210 g/ha: 11.21 kg/ha; for inhibition at 1120 g/ha: 1.12 kg/ha
# Procedure: as §1, §2, §3, §4
# Yellow nutsedge [3] = assay: Pre-emergence herbicide test; conditions: Cyperus, read-out: % plant inhibition (Yens); for inhibition at 11210 g/ha: 11.21 kg/ha; for inhibition at 1120 g/ha: 1.12 kg/ha
# Procedure: as §1, §2, §3, §4
# Seedling johnsongrass [4] = assay: Pre-emergence herbicide test; conditions: Sorghum halepense, read-out: % plant inhibition (Sejg); for inhibition at 11210 g/ha: 11.21 kg/ha; for inhibition at 1120 g/ha: 1.12 kg/ha
# Procedure: as §1, §2, §3, §4
# Downy Brome [5] = assay: Pre-emergence herbicide test; conditions: Bromus tectorum, read-out: % plant inhibition (Dobr); for inhibition at 11210 g/ha: 11.21 kg/ha; for inhibition at 1120 g/ha: 1.12 kg/ha
# Procedure: as §1, §2, §3, §4
# Indian Mustard [6] = assay: Pre-emergence herbicide test; conditions: Brassica juncea, read-out: % plant inhibition (Inmu); for inhibition at 11210 g/ha: 11.21 kg/ha; for inhibition at 1120 g/ha: 1.12 kg/ha
# Procedure: as §1, §2, §3, §4
# Morningglory [7] = assay: Pre-emergence herbicide test; conditions: Ipomoea, read-out: % plant inhibition (Mogl); for inhibition at 11210 g/ha: 11.21 kg/ha; for inhibition at 1120 g/ha: 1.12 kg/ha
# Procedure: as §1, §2, §3, §4
# Velvetleaf [8] = assay: Pre-emergence herbicide test; conditions: Abutilon theophrasti, read-out: % plant inhibition (Vele); for inhibition at 11210 g/ha: 11.21 kg/ha; for inhibition at 1120 g/ha: 1.12 kg/ha
# Procedure: as §1, §2, §3, §4
# Wild buckwheat [9] = assay: Pre-emergence herbicide test; conditions: Fallopia convolvulus, read-out: % plant inhibition (Wibw); for inhibition at 11210 g/ha: 11.21 kg/ha; for inhibition at 1120 g/ha: 1.12 kg/ha
# Procedure: as §1, §2, §3, §4
# Annual bluegrass [10] = assay: Pre-emergence herbicide test; conditions: read-out: % plant inhibition (Anbg); for inhibition at 11210 g/ha: 11.21 kg/ha; for inhibition at 1120 g/ha: 1.12 kg/ha
# Procedure: as §1, §2, §3, §4
# Cocklebur [11] = assay: Post-emergence herbicide test; conditions: Xanthium strumarium, read-out: % plant inhibition (Cobu); for inhibition at 11210 g/ha: 11.21 kg/ha; for inhibition at 1120 g/ha: 1.12 kg/ha
# Excerpt: (§5) Topsoil is placed in aluminum pans having holes in the bottom and compacted to a depth of 0.95 to 1.27 cm from the top of the pan. A predetermined number of seeds of each of several dicotyledonous and monocotyledonous annual plant species and/or vegetative propagules for the perennial plant species are placed on the soil and pressed into the soil surface. The seeds and/or vegetative propagules are covered with soil and leveled. The pans are then placed on a bench in the greenhouse and watered from below as needed. After the plants reach the desired age (two to three weeks), each pan, is removed individually to a spraying chamber and sprayed by means of an atomizer, operating at a spray pressure of 170.3 kPa (10 psig) at the application rates noted. In the spray solution is an amount of an emulsifying agent mixture to give a spray solution or suspension which contains about 0.4% by volume of the emulsifier. The spray solution or suspension contains a sufficient amount of the candidate chemical in order to give application rates of the active ingredient corresponding to those shown in Tables 8 and 8A, while applying a total amount of solution or suspension equivalent to 1870 L/Ha (200 gallons/acre). The pans were returned to the greenhouse and watered as before and the injury to the plants as compared to the control is observed at approximately 10-14 days (usually 11 days) and in some instances observed again at 24-28 days (usually 25 days) after spraying. The post-emergent herbicidal activity shown in these tables is the percent inhibition of each plant species.
# Barnyardgrass [12] = assay: Post-emergence herbicide test; conditions: Echinochloa crus-galli, read-out: % plant inhibition (Bygr); for inhibition at 11210 g/ha: 11.21 kg/ha; for inhibition at 1120 g/ha: 1.12 kg/ha
# Excerpt: as §5
# Yellow nutsedge [13] = assay: Post-emergence herbicide test; conditions: Cyperus, read-out: % plant inhibition (Yens); for inhibition at 11210 g/ha: 11.21 kg/ha; for inhibition at 1120 g/ha: 1.12 kg/ha
# Excerpt: as §5
# Seedling johnsongrass [14] = assay: Post-emergence herbicide test; conditions: Sorghum halepense, read-out: % plant inhibition (Sejg); for inhibition at 11210 g/ha: 11.21 kg/ha; for inhibition at 1120 g/ha: 1.12 kg/ha
# Excerpt: as §5
# Downy Brome [15] = assay: Post-emergence herbicide test; conditions: Bromus tectorum, read-out: % plant inhibition (Dobr); for inhibition at 11210 g/ha: 11.21 kg/ha; for inhibition at 1120 g/ha: 1.12 kg/ha
# Excerpt: as §5
# Indian Mustard [16] = assay: Post-emergence herbicide test; conditions: Brassica juncea, read-out: % plant inhibition (Inmu); for inhibition at 11210 g/ha: 11.21 kg/ha; for inhibition at 1120 g/ha: 1.12 kg/ha
# Excerpt: as §5
# Morningglory [17] = assay: Post-emergence herbicide test; conditions: Ipomoea, read-out: % plant inhibition (Mogl); for inhibition at 11210 g/ha: 11.21 kg/ha; for inhibition at 1120 g/ha: 1.12 kg/ha
# Excerpt: as §5
# Velvetleaf [18] = assay: Post-emergence herbicide test; conditions: Abutilon theophrasti, read-out: % plant inhibition (Vele); for inhibition at 11210 g/ha: 11.21 kg/ha; for inhibition at 1120 g/ha: 1.12 kg/ha
# Excerpt: as §5
# Wild buckwheat [19] = assay: Post-emergence herbicide test; conditions: Fallopia convolvulus, read-out: % plant inhibition (Wibw); for inhibition at 11210 g/ha: 11.21 kg/ha; for inhibition at 1120 g/ha: 1.12 kg/ha
# Excerpt: as §5
# Annual bluegrass [20] = assay: Post-emergence herbicide test; conditions: read-out: % plant inhibition (Anbg); for inhibition at 11210 g/ha: 11.21 kg/ha; for inhibition at 1120 g/ha: 1.12 kg/ha
# Excerpt: as §5
compound,measurement,setting,value
Cc1cc(-c2c(Cl)c(C(F)(F)F)nn2C)c(F)cc1Cl [Compound 63],inhibition at 11210 g/ha,Cocklebur [1],60%
same,inhibition at 11210 g/ha,Barnyardgrass [2],100%
same,inhibition at 11210 g/ha,Yellow nutsedge [3],0%
same,inhibition at 11210 g/ha,Seedling johnsongrass [4],100%
same,inhibition at 11210 g/ha,Downy Brome [5],100%
same,inhibition at 11210 g/ha,Indian Mustard [6],100%
same,inhibition at 11210 g/ha,Morningglory [7],100%
same,inhibition at 11210 g/ha,Velvetleaf [8],100%
same,inhibition at 11210 g/ha,Wild buckwheat [9],100%
same,inhibition at 11210 g/ha,Annual bluegrass [10],100%
same,inhibition at 11210 g/ha,Cocklebur [11],0%
same,inhibition at 11210 g/ha,Barnyardgrass [12],20%
same,inhibition at 11210 g/ha,Yellow nutsedge [13],0%
same,inhibition at 11210 g/ha,Seedling johnsongrass [14],70%
same,inhibition at 11210 g/ha,Downy Brome [15],20%
same,inhibition at 11210 g/ha,Indian Mustard [16],40%
same,inhibition at 11210 g/ha,Morningglory [17],100%
same,inhibition at 11210 g/ha,Velvetleaf [18],100%
same,inhibition at 11210 g/ha,Wild buckwheat [19],100%
same,inhibition at 11210 g/ha,Annual bluegrass [20],20%
CNC(=O)Cc1cc(-c2nn(C)c(C(F)(F)F)c2Cl)c(F)cc1Cl [Compound 114],inhibition at 11210 g/ha,Cocklebur [1],70%
same,inhibition at 11210 g/ha,Barnyardgrass [2],100%
same,inhibition at 11210 g/ha,Yellow nutsedge [3],90%
same,inhibition at 11210 g/ha,Seedling johnsongrass [4],90%
same,inhibition at 11210 g/ha,Downy Brome [5],60%
same,inhibition at 11210 g/ha,Indian Mustard [6],100%
same,inhibition at 11210 g/ha,Morningglory [7],100%
same,inhibition at 11210 g/ha,Velvetleaf [8],100%
same,inhibition at 11210 g/ha,Wild buckwheat [9],100%
same,inhibition at 11210 g/ha,Annual bluegrass [10],100%
same,inhibition at 11210 g/ha,Cocklebur [11],20%
same,inhibition at 11210 g/ha,Barnyardgrass [12],0%
same,inhibition at 11210 g/ha,Yellow nutsedge [13],10%
same,inhibition at 11210 g/ha,Seedling johnsongrass [14],0%
same,inhibition at 11210 g/ha,Downy Brome [15],0%
same,inhibition at 11210 g/ha,Indian Mustard [16],10%
same,inhibition at 11210 g/ha,Morningglory [17],50%
same,inhibition at 11210 g/ha,Velvetleaf [18],50%
same,inhibition at 11210 g/ha,Wild buckwheat [19],60%
same,inhibition at 11210 g/ha,Annual bluegrass [20],10%
"CCOC(=O)c1cc(-c2nn(C)c(C(F)(F)F)c2Cl)c(F)cc1Cl [Compound 148, 2-Chloro-5-(4-chloro-1-methyl-5-(trifluoromethyl)-1H-pyrazol-3-yl)-4-fluorobenzoic acid, ethyl ester]",inhibition at 1120 g/ha,Cocklebur [1],90%
same,inhibition at 1120 g/ha,Barnyardgrass [2],90%
same,inhibition at 1120 g/ha,Yellow nutsedge [3],0%
same,inhibition at 1120 g/ha,Seedling johnsongrass [4],50%
same,inhibition at 1120 g/ha,Downy Brome [5],80%
same,inhibition at 1120 g/ha,Indian Mustard [6],100%
same,inhibition at 1120 g/ha,Morningglory [7],100%
same,inhibition at 1120 g/ha,Velvetleaf [8],100%
same,inhibition at 1120 g/ha,Wild buckwheat [9],100%
same,inhibition at 1120 g/ha,Annual bluegrass [10],70%
same,inhibition at 1120 g/ha,Cocklebur [11],100%
same,inhibition at 1120 g/ha,Barnyardgrass [12],100%
same,inhibition at 1120 g/ha,Yellow nutsedge [13],20%
same,inhibition at 1120 g/ha,Seedling johnsongrass [14],100%
same,inhibition at 1120 g/ha,Downy Brome [15],100%
same,inhibition at 1120 g/ha,Indian Mustard [16],100%
same,inhibition at 1120 g/ha,Morningglory [17],100%
same,inhibition at 1120 g/ha,Velvetleaf [18],100%
same,inhibition at 1120 g/ha,Wild buckwheat [19],100%
same,inhibition at 1120 g/ha,Annual bluegrass [20],100%
Cc1cc(-c2nn(C)c(C(F)(F)F)c2Br)c(F)cc1Cl [Compound 125],inhibition at 1120 g/ha,Cocklebur [1],30%
same,inhibition at 1120 g/ha,Barnyardgrass [2],100%
same,inhibition at 1120 g/ha,Yellow nutsedge [3],0%
same,inhibition at 1120 g/ha,Seedling johnsongrass [4],100%
same,inhibition at 1120 g/ha,Downy Brome [5],90%
same,inhibition at 1120 g/ha,Indian Mustard [6],100%
same,inhibition at 1120 g/ha,Morningglory [7],90%
same,inhibition at 1120 g/ha,Velvetleaf [8],100%
same,inhibition at 1120 g/ha,Wild buckwheat [9],100%
same,inhibition at 1120 g/ha,Annual bluegrass [10],100%
same,inhibition at 1120 g/ha,Cocklebur [11],40%
same,inhibition at 1120 g/ha,Barnyardgrass [12],0%
same,inhibition at 1120 g/ha,Yellow nutsedge [13],0%
same,inhibition at 1120 g/ha,Seedling johnsongrass [14],0%
same,inhibition at 1120 g/ha,Downy Brome [15],0%
same,inhibition at 1120 g/ha,Indian Mustard [16],30%
same,inhibition at 1120 g/ha,Morningglory [17],30%
same,inhibition at 1120 g/ha,Velvetleaf [18],100%
same,inhibition at 1120 g/ha,Wild buckwheat [19],100%
same,inhibition at 1120 g/ha,Annual bluegrass [20],20%
